Results from patent US6251897A, “6-phenyltetrahydro-1,3-oxazin-2-one derivative and pharmaceutical composition containing the same” (Nikken Chemicals Co., LTD, priority 1996, dated 2001).

What was measured:
Type IV PDE = experiment: PDE inhibitory activity, type IV isozyme (3H-cAMP hydrolysis); format: biochemical; conditions: partially purified from rat neutrophils, 30° C., 30 minutes
Method: Type I, III, IV, and V PDE isozymes were prepared to study the PDE inhibitory activities and selectivities with the compound of the invention [Trends Pharmacol. Sci., 12, 19-27 (1992)]. Type I PDE was purchased from Sigma Corp. Type III, IV, and V PDE isozymes were partially purified from rats platelets (Type III and V) or neutrophils (Type IV). Each enzyme source was homogenized in a buffer (pH 6.5) containing 20 mM bisTris, 2 mM EDTA (ethylenediamine tetraacetate), 0.1 mM PMSF (phenylmethylsulfonyl fluoride), 5 mM 2-mercaptoethanol, 0.001 mM pepstatin, and 0.01 mM leupeptin and was centrifuged at 30,000×G for 30 minutes to obtain a supernatant, which was applied to an ion exchange column (Q-sepharose First Flow, Pharmacia Corp.) and was eluted with 0 to 1M sodium acetate. Partially purified isozymes were identified by observing the effects of conventional inhibitors.
Each PDE isozyme and the test compound dissolved in DMSO (dimethyl sulfoxide) were added to 50 mM Tris-HCl buffer containing 5 mM magnesium chloride. ^3 H-cAMP (for type III and IV PDE) or ^3 H-cGMP (for type I and V PDE) were added as substrates and were reacted at 30° C. for 30 minutes. The reaction was terminated by placing the test tube in boiling water of 100° C. for 5 minutes. The nucleotides formed by PDE were broken down by 5'-nucleotidase to ^3 H-adenosine or ^3 H-guanosine. The unreacted substrate and reaction product were separated through an ion-exchange column (QAE sephadex, Pharmacia Corp.) The eluted ^3 H-nucleoside was measured for its radioactivity by a liquid scintillation counter. The inhibiting activities of the compound of the present invention are shown by the IC50 value (M). Further, the inhibitory activities of the test samples against Type I, III, and V are 1/10 or less than that against type IV.

[1] = tested on: antigen-induced bronchospasm in guinea pig; experiment: Inhibitory effect on antigen-induced bronchospasm (Konzett-Roessler, ovalbumin-sensitized); format: in vivo, guinea pig (Hartley male); conditions: Cavia porcellus; intravenous, 10 minutes before antigen (0.2 mg/kg OA i.v.); read-out: Action for suppressing antigen-induced bronchospasms ED50
Method: A Hartley male guinea pig was sensitized by intramuscular administration of […] Ovalbumin (OA) on first day and fourth day, and used after 24th day. A trachial canula was introduced in the guinea pig anesthetized with pentobarbital and artificial ventilation was performed 25 to 29 days after the first sensitization. The overflow of the ventilation was measured by the Konzett-Roessler method while 0.2 mg/kg OA were administered intravenously. The test compound was dissolved in polyethylene glycol 400 and intravenously administered 10 minutes before administration of the antigens.

| IC50 (Type IV PDE) | Structure (SMILES) | ED50 [1] |
| --- | --- | --- |
| 3.2 µM | COc1ccc(C2CCNC(=O)O2)cc1OCC1CC1 (stereo not shown) [Compound No. 4, 6-(3-cyclopropylmethyloxy-4-methoxyphenyl)-3,4,5,6-tetrahydro-2H-1,3-oxazin-2-one] | 0.23 mg/kg |
| 6.1 µM | COc1ccc(C2CCN(Cc3ccncc3)C(=O)O2)cc1OC1CCCC1 (stereo not shown) [Compound No. 14, 6-(3-cyclopentyloxy-4-methoxyphenyl)-3-(4-pyridylmethyl)-3,4,5,6-tetrahydro-2H-1,3-oxazin-2-one] | 2.4 mg/kg |
| 5.5 µM | COc1ccc(C2CCN(Cc3ccccn3)C(=O)O2)cc1OC1CCCC1 (stereo not shown) [Compound No. 16] | 2.1 mg/kg |
| 1.5 µM | COc1ccc(C2CCNC(=O)O2)cc1OCCc1ccccc1 (stereo not shown) [Compound No. 23, 6-(4-methoxy-3-phenethyloxyphenyl)-3,4,5,6-tetrahydro-2H-1,3-oxazin-2-one] | 13.6 mg/kg |
| 52 µM | COc1ccc(C2CCNC(=O)O2)cc1OCCCN1CCN(Cc2ccccc2)CC1 (stereo not shown) [Compound No. 60, 6-[3-[3-(4-benzyl-1-piperazinyl)propoxy]-4-methoxyphenyl]-3,4,5,6-tetrahydro-2H-1,3-oxazin-2-one] |  |
| 3.3 µM | COc1ccc(C2CCN(C)C(=O)O2)cc1OCC1CCC1 (stereo not shown) [Compound No. 62, 6-(3-cyclobutylmethyloxy-4-methoxyphenyl)-3-methyl-3,4,5,6-tetrahydro-2H-1,3-oxazin-2-one] |  |
| 4.6 µM | COc1ccc(C2CCN(C)C(=O)O2)cc1OCC1(C)CC1 (stereo not shown) [Compound No. 64, 6-[4-methoxy-3-[(1-methylcyclopropyl)methyloxy]phenyl]-3-methyl-3,4,5,6-tetrahydro-2H-1,3-oxazin-2-one] |  |
| 1.1 µM | COc1ccc(C2CCNC(=O)O2)cc1OCCc1cccc2ccccc12 (stereo not shown) [Compound No. 67, 6-[4-methoxy-3-[2-(1-naphthyl)ethoxy]phenyl]-3,4,5,6-tetrahydro-2H-1,3-oxazin-2-one] |  |
| 2.6 µM | COc1ccc(C2CCN(C)C(=O)O2)cc1OCCc1cccc2ccccc12 (stereo not shown) [Compound No. 68, 6-[4-methoxy-3-[2-(1-naphthyl)ethoxy]phenyl]-3-methyl-3,4,5,6-tetrahydro-2H-1,3-oxazin-2-one] |  |
| 8.3 µM | COc1ccc(C2CCNC(=O)O2)cc1OCCc1scnc1C (stereo not shown) [Compound No. 72, 6-[4-methoxy-3-[2-(4-methyl-5-thiazolyl)ethoxy]phenyl]-3,4,5,6-tetrahydro-2H-1,3-oxazin-2-one] |  |
| 1.3 µM | COc1ccc(C2CCNC(=O)O2)cc1OCCc1ccc(F)cc1 (stereo not shown) [Compound No. 74, 6-[3-[2-(4-fluorophenyl)ethoxy]-4-methoxyphenyl]-3,4,5,6-tetrahydro-2H-1,3-oxazin-2-one] |  |
| 1.8 µM | COc1ccc(C2CCN(C)C(=O)O2)cc1OCCc1ccc(F)cc1 (stereo not shown) [Compound No. 75, 6-[3-[2-(4-fluorophenyl)ethoxy]-4-methoxyphenyl]-3-methyl-3,4,5,6-tetrahydro-2H-1,3-oxazin-2-one] |  |
| 3.3 µM | COc1ccc(C2CCN(C)C(=O)O2)cc1OCC1CCCC1 (stereo not shown) [Compound No. 77, 6-(3-cyclopentylmethyloxy-4-methoxyphenyl)-3-methyl-3,4,5,6-tetrahydro-2H-1,3-oxazin-2-one] |  |
| 0.78 µM | COc1ccc(C2OC(=O)NCC2(C)C)cc1OC1CCCC1 (stereo not shown) [Compound No. 85, 6-(3-cyclopentyloxy-4-methoxyphenyl)-5,5-dimethyl-3,4,5,6-tetrahydro-2H-1,3-oxazin-2-one] |  |
| 0.19 µM | COc1ccc(C2OC(=O)N(C)CC2(C)C)cc1OC1Cc2ccccc2C1 (stereo not shown) [Compound No. 88, 6-[3-(2-indanyloxy)-4-methoxyphenyl]-3,5,5-trimethyl-3,4,5,6-tetrahydro-2H-1,3-oxazin-2-one] |  |
| 3.7 µM | COc1ccc(C2CCNC(=O)O2)cc1OC1CCOC1 (stereo not shown) [Compound No. 93, 6-[3-(3-tetrahydrofuryloxy)-4-methoxyphenyl]-3,4,5,6-tetrahydro-2H-1,3-oxazin-2-one] |  |

Second part, the compound before the results:

| Structure (SMILES) | IC50 (Type IV PDE) | ED50 [1] |
| --- | --- | --- |
| COc1ccc(C2(C)CCNC(=O)O2)cc1OC1CCCC1 (stereo not shown) [Compound No. 6, 6-(3-cyclopentyloxy-4-methoxyphenyl)-6-methyl-3,4,5,6-tetrahydro-2H-1,3-oxazin-2-one] | 1.1 µM | 0.3 mg/kg |
| COc1ccc(C2CCN(Cc3cccnc3)C(=O)O2)cc1OC1CCCC1 (stereo not shown) [Compound No. 20, 6-(3-cyclopentyloxy-4-methoxyphenyl)-3-(3-pyridylmethyl)-3,4,5,6-tetrahydro-2H-1,3-oxazin-2-one] | 3.5 µM | 8.5 mg/kg |
| COc1ccc(C2(C)CCN(C)C(=O)O2)cc1OC1CCCC1 (stereo not shown) [Compound No. 21, 6-(3-cyclopentyloxy-4-methoxyphenyl)-3,6-dimethyl-3,4,5,6-tetrahydro-2H-1,3-oxazin-2-one] | 0.66 µM | 0.29 mg/kg |
| COc1ccc(C2CCNC(=O)O2)cc1OC1Cc2ccccc2C1 (stereo not shown) [Compound No. 24, 6-[3-(2-indanyloxy)-4-methoxyphenyl]-3,4,5,6-tetrahydro-2H-1,3-oxazin-2-one] | 0.13 µM | 1.6 mg/kg |
| COc1ccc(C2CCN(C)C(=O)O2)cc1OC1Cc2ccccc2C1 (stereo not shown) [Compound No. 25, 6-[3-(2-indanyloxy)-4-methoxyphenyl]-3-methyl-3,4,5,6-tetrahydro-2H-1,3-oxazin-2-one] | 0.19 µM | 0.061 mg/kg |
| COc1ccc(C2CCNC(=O)O2)cc1OC1c2ccccc2CCc2ccccc21 (stereo not shown) [Compound No. 58, 6-[3-(10,11-dihydro-5H-dibenzo[a,d]cyclohepten-5-yloxy)-4-methoxyphenyl]-3,4,5,6-tetrahydro-2H-1,3-oxazin-2-one] | 9.4 µM |  |
| COc1ccc(C2CCN(C)C(=O)O2)cc1OC1c2ccccc2CCc2ccccc21 (stereo not shown) [Compound No. 59, 6-[3-(10,11-dihydro-5H-dibenzo[a,d]cyclohepten-5-yloxy)-4-methoxyphenyl]-3-methyl-3,4,5,6-tetrahydro-2H-1,3-oxazin-2-one] | 27 µM |  |
| COc1ccc(C2CCNC(=O)O2)cc1OCC1(C)CC1 (stereo not shown) [Compound No. 63, 6-[4-methoxy-3-[(1-methylcyclopropyl)methyloxy]phenyl]-3,4,5,6-tetrahydro-2H-1,3-oxazin-2-one] | 3.4 µM |  |
| CCC(CC)COc1cc(C2CCNC(=O)O2)ccc1OC (stereo not shown) [Compound No. 69, 6-[3-(2-ethylbutoxy)-4-methoxyphenyl]-3,4,5,6-tetrahydro-2H-1,3-oxazin-2-one] | 5 µM |  |
| CCC(CC)COc1cc(C2CCN(C)C(=O)O2)ccc1OC (stereo not shown) [Compound No. 70, 6-[3-(2-ethylbutoxy)-4-methoxyphenyl]-3-methyl-3,4,5,6-tetrahydro-2H-1,3-oxazin-2-one] | 3.5 µM |  |
| COc1ccc(C2CCNC(=O)O2)cc1OC1(C)CCCC1 (stereo not shown) [Compound No. 80, 6-[4-methoxy-3-(1-methylcyclopentyloxy)phenyl]-3,4,5,6-tetrahydro-2H-1,3-oxazin-2-one] | 1.5 µM |  |
| COc1ccc(C2CCNC(=O)O2)cc1OCCOCc1ccccc1 (stereo not shown) [Compound No. 83, 6-[3-(2-benzyloxyethoxy)-4-methoxyphenyl]-3,4,5,6-tetrahydro-2H-1,3-oxazin-2-one] | 3.4 µM |  |
| COc1ccc(C2CCN(C)C(=O)O2)cc1OCCOCc1ccccc1 (stereo not shown) [Compound No. 84, 6-[3-(2-benzyloxyethoxy)-4-methoxyphenyl]-3-methyl-3,4,5,6-tetrahydro-2H-1,3-oxazin-2-one] | 3.1 µM |  |
| COc1ccc(C2OC(=O)N(C)CC2(C)C)cc1OC1CCCC1 (stereo not shown) [Compound No. 86, 6-(3-cyclopentyloxy-4-methoxyphenyl)-3,5,5-trimethyl-3,4,5,6-tetrahydro-2H-1,3-oxazin-2-one] | 0.86 µM |  |
| COc1ccc(C2OC(=O)NCC2(C)C)cc1OC1Cc2ccccc2C1 (stereo not shown) [Compound No. 87, 5,5-dimethyl-6-[3-(2-indanyloxy)-4-methoxyphenyl]-3,4,5,6-tetrahydro-2H-1,3-oxazin-2-one] | 0.088 µM |  |
| COc1ccc(C2CCNC(=O)O2)cc1OC1CCN(Cc2ccccc2)CC1 (stereo not shown) [Compound No. 89, 6-[3-(1-benzyl-4-piperidyloxy)-4-methoxyphenyl]-3,4,5,6-tetrahydro-2H-1,3-oxazin-2-one] | 35 µM |  |
| COc1ccc(C2CCNC(=O)O2)cc1OCCOCC1CC1 (stereo not shown) [Compound No. 90, 6-[3-[2-(cyclopropylmethyloxy)ethoxy]-4-methoxyphenyl]-3,4,5,6-tetrahydro-2H-1,3-oxazin-2-one] | 1.9 µM |  |
| COc1ccc(C2CCN(C)C(=O)O2)cc1OCCc1scnc1C (stereo not shown) [compound 73, 6-[4-methoxy-3-[2-(4-methyl-5-thiazolyl)ethoxy]phenyl]-3-methyl-3,4,5,6-tetrahydro-2H-1,3-oxazin-2-one] | 7.3 µM |  |
